Here are results for one molecule from ChEMBL document CHEMBL3508140 (2016).

SMILES strings stand for the structures.

Data set [1] in a line: Urinary excretion of epirubicinol following epirubicin at 75-90 mg.m-2 dose in cancer patients. Type of data set: ADME, organism-based, Urine. The following applies: human, in vivo.
Data set [2] can be described thus: (§1) Urinary excretion of epirubicinol following epirubicin at 50 mg.m-2 dose in cancer patients. The conditions noted are these: human, in vivo; at 50 mg/m2. In kind it is ADME, organism-based, Urine.
The nature of data set [3]: Recovery of epirubicinol following intraperitoneal epirubicin at 4 mg.Kg-1 dose in mouse. In kind it is ADME, organism-based, CD-1, Plasma. The conditions noted are these: in vivo, ip.
The nature of data set [4]: Detection of epirubicinol in heart following single intravenous epirubicin at 10 mg.Kg-1 dose in female mouse bearing colon tumor. The conditions noted are these: in vivo. In kind it is ADME, organism-based, BALB/c.
A short description of data set [5]: AUC(0-24 h) of epirubicinol following intravenous epirubicin at 3 mg.Kg-1 dose in rabbit. In kind it is ADME, organism-based, Oryctolagus cuniculus, New Zealand White, Plasma. The conditions noted are these: in vivo.
Data set [6] can be described thus: AUC values (0-48 h) of epirubicinol in plasma following single intravenous epirubicin at 10 mg.Kg-1 dose in female mouse bearing colon tumor. In kind it is ADME, organism-based, BALB/c. The conditions noted are these: in vivo.
Data set [7] in a line: Recovery of epirubicinol following intraperitoneal epirubicin at 4 mg.Kg-1 dose in hamster. Type of data set: ADME, organism-based, Cricetulus griseus, Plasma. The conditions noted are these: chinese hamster, in vivo, ip.
The nature of data set [8]: Detection of epirubicinol in tumor following single intravenous epirubicin at 10 mg.Kg-1 dose in female mouse bearing colon tumor. The conditions noted are these: in vivo. Type of data set: ADME, organism-based, BALB/c, Neoplasm.
A short description of data set [9]: (§2) Urinary elimination of 4'-epiadriamycinol following intravenous bolus 4'-epiadriamycin at 10 mg.Kg-1 dose in rat. The following applies: in vivo. In kind it is ADME, organism-based, SD, Urine.
Data set [10] in a line: Detection of epirubicinol in plasma following single intravenous epirubicin at 10 mg.Kg-1 dose in female mouse bearing colon tumor. In kind it is ADME, organism-based, BALB/c. The following applies: in vivo.
Data set [11] in a line: Recovery of epirubicinol following intravenous epirubicin at 4 mg.Kg-1 dose in rabbit. Type of data set: ADME, organism-based, Oryctolagus cuniculus, New Zealand White, Plasma. The following applies: in vivo.
The nature of data set [12]: Urinary excretion of epirubicinol following epirubicin at 60-150 mg.m-2 dose in cancer patients. Type of data set: ADME, organism-based, Urine. The conditions noted are these: human, in vivo.
A short description of data set [13]: Biliary excretion of epirubicinol following epirubicin at 50 mg.m-2 dose in cancer patients. In kind it is ADME, organism-based, Bile. The conditions noted are these: human, in vivo; at 50 mg/m2.
Data set [14] is described as follows: AUC values (0-48 h) of epirubicinol in tumor following single intravenous epirubicin at 10 mg.Kg-1 dose in female mouse bearing colon tumor. Type of data set: ADME, organism-based, BALB/c, Neoplasm. The following applies: in vivo.
The nature of data set [15]: Recovery of epirubicinol following intravenous epirubicin at 1.5 mg.Kg-1 dose in man. Type of data set: ADME, organism-based, Plasma. The following applies: human, in vivo.
Data set [16] can be described thus: as §1. Type of data set: ADME, organism-based, Urine. The following applies: human, in vivo; at 50 mg/m2. This is another data set of the same source.
Data set [17] is described as follows: Urinary excretion of epirubicinol following epirubicin at 60 mg.m-2 dose in cancer patients. In kind it is ADME, organism-based, Urine. The conditions noted are these: human, in vivo; at 60 mg/m2.
Data set [18] in a line: Recovery of epirubicinol following intravenous epirubicin at 4 mg.Kg-1 dose in rat. The following applies: in vivo. Type of data set: ADME, organism-based, SD, Plasma.
Data set [19] can be described thus: AUC values (0-48 h) of epirubicinol in heart following single intravenous epirubicin at 10 mg.Kg-1 dose in female mouse bearing colon tumor. The following applies: in vivo. Type of data set: ADME, organism-based, BALB/c.
Data set [20] is described as follows: as §2. Type of data set: ADME, organism-based, SD, Urine. The following applies: in vivo. This is another data set of the same source.
A short description of data set [21]: as §2. In kind it is ADME, organism-based, SD, Urine. The conditions noted are these: in vivo. The source holds these as a separate data set.
Data set [22] is described as follows: AUC(0-24 h) of epirubicinol following intravenous epirubicin at 1 mg.Kg-1 dose in rabbit. Type of data set: ADME, organism-based, Oryctolagus cuniculus, New Zealand White, Plasma. The conditions noted are these: in vivo.

`COc1cccc2c1C(=O)c1c(O)c3c(c(O)c1C2=O)C[C@@](O)(C(O)CO)C[C@@H]3O[C@H]1C[C@H](N)[C@@H](O)[C@H](C)O1` (some centres not stated): the Compound recovery in [1] is recorded as 0.8%; in data set [2], 0.6%; in [3], 0.2 10^-9M; in [4], “OUTCOME = Observed”; in data set [7], 3.3 10^-9M; in data set [8], “OUTCOME = Not detected/not observed”. Further, the Compound recovery in [9] is on record as 0.03%; in data set [10] it was “OUTCOME = Observed”; in [11], 23 10^-9M; in [12], 0.5%; in [13], 6.5%; in data set [15], 15 10^-9M. Also, the Compound recovery was 4.1% in data set [16]; 0.9% in data set [17]; 0.4 10^-9M in data set [18]; 0.044% in data set [20]; 0.024% in data set [21]. For the same molecule, the AUC is 204.86 ng·h/mL in data set [5]; 0.5 nmol·min/mL in [6]; 0 nmol·min/g in data set [14]; 46 nmol·min/g in [19]; 69.46 ng·h/mL in [22].
